Reference: patent US20150246093A1, “ORAL FORMULATIONS OF ANGIOTENSIN” (TARIX PHARMACEUTICALS LTD., priority 2012, published 2015)
Values joined by “and” are separate entries in the source; they are usually repeats but may differ in a detail not shown here. Identical values can stand only once. Like-named read-outs stand apart in the source and are kept apart here.

Test: Pharmacokinetics after intra-duodenal injection (ID) in anesthetized rats, model mimicking enteric-coated oral dosage form, plasma LC-MS
Assay type: in vivo, rat
Details: for Total mean A(1-7) exposure over the observation period: ID; for level at 0 h / level at 10 min / level at 20 min / level at 40 min / level at 1 h / level at 1.5 h / level at 5 min: read-out: Angiotensin (1-7) concentration
Method: This model mimics the release and absorption expected from an orally delivered enteric coated solid dosage form such as capsule or tablet.
After extraction, the samples were then transferred to ice-cold tubes containing a protease inhibitor cocktail. The samples were kept on ice until they were centrifuged at 4° C. to obtain plasma. The plasma supernatants were then frozen −70° C. until analysis using an LC-MS assay.
The oral delivery of an angiotensin (1-7) peptide (e.g., TXA127) was then evaluated in a rat model that mimics the release of the peptide into the intestine by enteric-coated capsule. Briefly, the duodenums of anesthetized rats were surgically exposed, and an angiotensin (1-7) peptide was delivered through a 27 gauge needle into the duodenum. A baseline was obtained by ID administration of an angiotensin (1-7) in PBS. Samples of blood was removed from the carotid artery before and 5, 10, 20, 40, 60 and 90 minutes after peptide administration. Subsequently, an angiotensin (1-7) peptide was administered ID in 400 mM citrate buffer (pH 3.5) and lauroyl-L-carnitine (LLC) (10 mg/ml), a formulation that mimics the contents of the enteric-coated capsules. In order to maximize the stability of TXA127 in rat circulation, captopril (e.g., 0.5 mg/ml or 5 mg/ml) may be added to the formulations. Blood samples were taken at the same time points as the baseline study and handled as described above for analysis.

[1] = ID 0.3 ml A [10 mg/ml in PBS], individual rats
[2] = ID 0.3 ml B [10 mg/ml, 10 mg/ml LLC, 400 mM Citrate pH 3.5, 150 mM NaCl], individual rats
[3] = ID 0.3 ml C [10 mg/ml, Captopril 0.5 mg/ml, 10 mg/ml LLC, 400 mM Citrate pH 3.5, 150 mM NaCl], individual rats
[4] = ID 0.3 ml C [10 mg/ml, Captopril 5 mg/ml, 10 mg/ml LLC, 400 mM Citrate pH 3.5, 150 mM NaCl], individual rats

Half-Life [1]: 51 min and 140 min and 23 min and 7 min | Angiotensin (1-7) concentration (ID 0.3 ml B [10 mg/ml, 10 mg/ml LLC, 400 mM Citrate pH 3.5, 150 mM NaCl], time point 0 min (before administration), individual rats): 1.46 ng/mL | Angiotensin (1-7) concentration (ID 0.3 ml C [10 mg/ml, Captopril 0.5 mg/ml, 10 mg/ml LLC, 400 mM Citrate pH 3.5, 150 mM NaCl], time point 0 min (before administration), Average): 1.1 ng/mL | Angiotensin (1-7) concentration (ID 0.3 ml C [10 mg/ml, Captopril 5 mg/ml, 10 mg/ml LLC, 400 mM Citrate pH 3.5, 150 mM NaCl], time point 0 min (before administration), Average): 2.42 ng/mL | Total mean A(1-7) exposure over the observation period (0.3 mL of 10 mg/mL A(1-7) formulated in PBS, 6 rats): 403 ng·min/mL | Total mean A(1-7) exposure over the observation period (0.3 mL of 10 mg/mL A(1-7) with 0.5 mg/mL captopril (as printed in the text on Table 5), 10 mg/mL LLC, 400 mM Citrate, 150 mM NaCl pH 3.5, six rats): 9,399 ng*min/mL | Total mean A(1-7) exposure over the observation period (0.3 mL of 10 mg/mL A(1-7) with 0.5 mg/mL captopril, 10 mg/mL LLC, 400 mM Citrate, 150 mM NaCl pH 3.5, seven rats (Table 4)): 7,152 ng*min/mL | Total mean A(1-7) exposure over the observation period (0.3 mL of 10 mg/mL A(1-7) with 10 mg/mL LLC, 400 mM Citrate, 150 mM NaCl pH 3.5): 4,274 ng*min/mL | level at 0 h (rat, plasma, 3 mg per rat, pH 3.5, ID 0.3 ml B [10 mg/ml, 10 mg/ml LLC, 400 mM Citrate pH 3.5, 150 mM NaCl], time point 0 min (before administration), Average): 1.51 ng/mL | level at 10 min (rat, plasma, 3 mg per rat, pH 3.5, ID 0.3 ml B [10 mg/ml, 10 mg/ml LLC, 400 mM Citrate pH 3.5, 150 mM NaCl], time point 10 min, Average): 204 ng/mL | level at 20 min (rat, plasma, 3 mg per rat, pH 3.5, ID 0.3 ml B [10 mg/ml, 10 mg/ml LLC, 400 mM Citrate pH 3.5, 150 mM NaCl], time point 20 min, Average): 24.8 ng/mL | level at 40 min (rat, plasma, 3 mg per rat, pH 3.5, ID 0.3 ml B [10 mg/ml, 10 mg/ml LLC, 400 mM Citrate pH 3.5, 150 mM NaCl], time point 40 min, Average): 5.11 ng/mL | level at 1 h (rat, plasma, 3 mg per rat, pH 3.5, ID 0.3 ml B [10 mg/ml, 10 mg/ml LLC, 400 mM Citrate pH 3.5, 150 mM NaCl], time point 60 min, Average): 5.2 ng/mL | level at 1.5 h (rat, plasma, 3 mg per rat, pH 3.5, ID 0.3 ml B [10 mg/ml, 10 mg/ml LLC, 400 mM Citrate pH 3.5, 150 mM NaCl], time point 90 min, Average): 3.6 ng/mL | level at 0 h (rat, plasma, 3 mg, ID 0.3 ml A [10 mg/ml in PBS], time point 0 min (before administration), Average): 1.74 ng/mL | level at 5 min (rat, plasma, 3 mg, ID 0.3 ml A [10 mg/ml in PBS], time point 5 min, Average): 4.18 ng/mL | level at 10 min (rat, plasma, 3 mg, ID 0.3 ml A [10 mg/ml in PBS], time point 10 min, Average): 2.85 ng/mL | level at 20 min (rat, plasma, 3 mg, ID 0.3 ml A [10 mg/ml in PBS], time point 20 min, Average): 3.58 ng/mL | level at 40 min (rat, plasma, 3 mg, ID 0.3 ml A [10 mg/ml in PBS], time point 40 min, Average): 4.37 ng/mL | level at 1 h (rat, plasma, 3 mg, ID 0.3 ml A [10 mg/ml in PBS], time point 60 min, Average): 5.67 ng/mL | level at 1.5 h (rat, plasma, 3 mg, ID 0.3 ml A [10 mg/ml in PBS], time point 90 min, Average): 4.96 ng/mL | level at 5 min (rat, plasma, 3 mg, pH 3.5, ID 0.3 ml B [10 mg/ml, 10 mg/ml LLC, 400 mM Citrate pH 3.5, 150 mM NaCl], time point 5 min, Average): 417 ng/mL | AUC(0-t) (rat, plasma, other: intra-duodenal injection (ID), 3 mg, ID 0.3 ml A [10 mg/ml in PBS], Average (PK value of the mean concentrations), read-out: AUC0-90 (converted)): 6.73 ng·h/mL | Cmax (rat, plasma, other: intra-duodenal injection (ID), 3 mg, ID 0.3 ml A [10 mg/ml in PBS], Average (PK value of the mean concentrations), read-out: Cmax): 5.7 ng/mL | Half-Life (rat, plasma, other: intra-duodenal injection (ID), 3 mg, ID 0.3 ml A [10 mg/ml in PBS], Average (PK value of the mean concentrations), read-out: Half-Life): 155 min
SMILES: CC[C@H](C)[C@H](NC(=O)[C@H](Cc1ccc(O)cc1)NC(=O)[C@@H](NC(=O)[C@H](CCCNC(=N)N)NC(=O)[C@@H](N)CC(=O)O)C(C)C)C(=O)N[C@@H](Cc1c[nH]cn1)C(=O)N1CCC[C@H]1C(=O)O [Angiotensin (1-7), Asp^1-Arg^2-Val^3-Tyr^4-Ile^5-His^6-Pro^7]
AUC0-90 [1]: 123 ng·min/mL and 881 ng·min/mL and 181 ng·min/mL and 456 ng·min/mL and 166 ng·min/mL and 616 ng·min/mL | Cmax [1]: 3.44 ng/mL and 15 ng/mL and 4 ng/mL and 9 ng/mL and 3 ng/mL and 10.4 ng/mL | Angiotensin (1-7) concentration (ID 0.3 ml A [10 mg/ml in PBS], time point 0 min (before administration), individual rats): 0.23 ng/mL and 0.0 ng/mL and 1.54 ng/mL and 1.00 ng/mL and 1.84 ng/mL and 5.81 ng/mL | Angiotensin (1-7) concentration (ID 0.3 ml A [10 mg/ml in PBS], time point 5 min, individual rats): 0.84 ng/mL and 12.3 ng/mL and 0.94 ng/mL and 0.88 ng/mL and 0.891 ng/mL and 9.24 ng/mL | Angiotensin (1-7) concentration (ID 0.3 ml A [10 mg/ml in PBS], time point 10 min, individual rats): 3.44 ng/mL and 6.38 ng/mL and 1.08 ng/mL and 0.99 ng/mL and 1.12 ng/mL and 4.08 ng/mL | Angiotensin (1-7) concentration (ID 0.3 ml A [10 mg/ml in PBS], time point 20 min, individual rats): 0.62 ng/mL and 13.3 ng/mL and 1.91 ng/mL and 1.79 ng/mL and 1.80 ng/mL and 2.05 ng/mL | Angiotensin (1-7) concentration (ID 0.3 ml A [10 mg/ml in PBS], time point 40 min, individual rats): 0.27 ng/mL and 15.4 ng/mL and 1.22 ng/mL and 4.14 ng/mL and 1.30 ng/mL and 3.89 ng/mL | Angiotensin (1-7) concentration (ID 0.3 ml A [10 mg/ml in PBS], time point 60 min, individual rats): 1.55 ng/mL and 6.27 ng/mL and 3.97 ng/mL and 8.75 ng/mL and 3.07 ng/mL and 10.4 ng/mL | Angiotensin (1-7) concentration (ID 0.3 ml A [10 mg/ml in PBS], time point 90 min, individual rats): 2.61 ng/mL and 7.19 ng/mL and 0.78 ng/mL and 7.54 ng/mL and 1.23 ng/mL and 10.4 ng/mL | AUC0-90 [2]: 19,502.2 ng*min/mL and 1,777.5 ng*min/mL and 422.8 ng*min/mL and 1,168.2 ng*min/mL and 2,100.6 ng*min/mL and 669.9 ng*min/mL | Cmax [2]: >1000 ng/mL and 259.0 ng/mL and 19.3 ng/mL and 89.7 ng/mL and 60.7 ng/mL and 56.4 ng/mL | Half-Life [2]: 9.3 min and 173.3 min and 23.8 min and 25.2 min and 21.6 min and 25.0 min | Angiotensin (1-7) concentration (ID 0.3 ml B [10 mg/ml, 10 mg/ml LLC, 400 mM Citrate pH 3.5, 150 mM NaCl], time point 5 min, individual rats): >1000 ng/mL and 259 ng/mL and 3.48 ng/mL and 89.7 ng/mL and 60.7 ng/mL and 56.38 ng/mL | Angiotensin (1-7) concentration (ID 0.3 ml B [10 mg/ml, 10 mg/ml LLC, 400 mM Citrate pH 3.5, 150 mM NaCl], time point 10 min, individual rats): >1000 ng/mL and 21 ng/mL and 19.3 ng/mL and 15.2 ng/mL and 59.6 ng/mL and 17.92 ng/mL | Angiotensin (1-7) concentration (ID 0.3 ml B [10 mg/ml, 10 mg/ml LLC, 400 mM Citrate pH 3.5, 150 mM NaCl], time point 20 min, individual rats): 59.9 ng/mL and 7.35 ng/mL and 6.02 ng/mL (2×) and 18.4 ng/mL and 51.2 ng/mL | Angiotensin (1-7) concentration (ID 0.3 ml B [10 mg/ml, 10 mg/ml LLC, 400 mM Citrate pH 3.5, 150 mM NaCl], time point 40 min, individual rats): 4.88 ng/mL and 5.6 ng/mL and 2.32 ng/mL and 5.05 ng/mL and 11.7 ng/mL and 1.11 ng/mL | Angiotensin (1-7) concentration (ID 0.3 ml B [10 mg/ml, 10 mg/ml LLC, 400 mM Citrate pH 3.5, 150 mM NaCl], time point 60 min, individual rats): 4.74 ng/mL and 1.7 ng/mL and 3.99 ng/mL and 6.36 ng/mL and 10.9 ng/mL and 3.48 ng/mL | Angiotensin (1-7) concentration (ID 0.3 ml B [10 mg/ml, 10 mg/ml LLC, 400 mM Citrate pH 3.5, 150 mM NaCl], time point 90 min, individual rats): 3.93 ng/mL and 3.99 ng/mL and 1.11 ng/mL and 4.43 ng/mL and 4.74 ng/mL and 3.39 ng/mL | AUC0-90 [3]: 9,257 ng*min/mL and 20,442 ng*min/mL and 7,394 ng*min/mL and 2,252 ng*min/mL (2×) and 6,495 ng*min/mL | Cmax [3]: 879.0 ng/mL and >1000 ng/mL and 468.0 ng/mL and 83.0 ng/mL (2×) and 735.0 ng/mL | Half-Life [3]: 11.9 min and 29.1 min and 13.9 min and 18.3 min (2×) and 17.9 min | AUC0-90 [4]: 26,654 ng*min/mL and 1,008 ng*min/mL and 7,641 ng*min/mL and 10,668 ng*min/mL and 6,228 ng*min/mL and 3,862 ng*min/mL | Cmax [4]: <1000 ng/mL and 33.5 ng/mL and 504 ng/mL and 746.0 ng/mL and 391.25 ng/mL and 432.85 ng/mL | Half-Life [4]: 10.55 min and 7.97 min and 15.45 min and 11.94 min and 12.86 min and 25.62 min | Half-life and total exposure compared to the baseline profile of angiotensin (1-7) delivered in PBS (formulation according to the invention (citrate, LLC, with or without captopril), rat model mimicking oral delivery): significantly improved half-life and total exposure
